Reference: EP0770601A1, “PROPENONE DERIVATIVES” (Kyowa Hakko Kogyo Co., Ltd., priority 1995, dated 1996)

What was measured:
[1] = system: HeLa S3 cells; assay: HeLa S3 cell growth inhibition test (neutral red staining); format: cell-based; conditions: Homo sapiens, 72 hours culture with test compound, neutral red absorbance at 550 nm
Experimental: Test Example 1: HeLa S3 Cell Growth Inhibition Test
Each 0.1 ml of HeLa S3 cells which had been prepared to 3 x 10^4 cells/ml using a medium consisted of MEM medium, 10% fetal bovine serum and 2 mM glutamine was distributed in each well of 96 well-microtiter plate. HeLa S3 was cultured at 37°C in a CO2 incubator for one night, each 0.05 ml of test compounds which had been appropriately diluted with the culture solution was added thereto and the mixture was cultured at 37°C for 72 hours in a CO2 incubator. Supernatant was removed, each 0.1 ml of the culture solution containing 0.02% neutral red was added to the residue, the mixture was incubated at 37°C for one hour in a CO2 incubator and the cells were stained. Supernatant was removed and the residue was washed once with physiological saline. Then, the pigment was extracted with 0.001 N hydrochloric acid/30% ethanol and the absorbance at 550 nm was measured by a microplatereader. A concentration of the test compound (IC50) at which the growth of cell is inhibited by 50% was calculated by comparing the absorbance of non-treated cells and that of cells treated with a predetermined concentration of the test compound.

[2] = system: P388 mouse leukemia; assay: Effect upon P388 ascites tumor (increased life span); format: in vivo; conditions: consecutive 5 days from 24 hours after implantation of the tumor, male CDF1 mice
Experimental: Test Example 2: Effect upon P388 Ascites Tumor […] The resultant suspension was administered once 24 hours after implantation of the tumor, or repeatedly for consecutive 5 days from 24 hours after implantation of the tumor. The average survival day (T) in a group was calculated from the survival days of the respective mice in the group administered with the test compound at each dose. On the other hand, the average survival day (C) of a group which was not administered was measured, and the increased life span [ILS (%)] was calculated according to the following equation: [(T - C)/C] x 100 (%) [formula]

Row | Compound | IC50 [1] [nM] | also measured
1 | CCOc1cc(C(=O)C(C)=Cc2c[nH]c3ccccc23)cc(OCC)c1OCC [Compound 4, 3-(Indol-3-yl)-2-methyl-1-(3,4,5-triethoxyphenyl)-2-propen-1-one] | 22 | –
2 | COc1cc(C(=O)C(C)=Cc2c[nH]c3ccccc23)cc2c1OCO2 [Compound 8, 3-(Indol-3-yl)-1-(3-methoxy-4,5-methylenedioxyphenyl)-2-methyl-2-propen-1-one] | 6.1 | ILS (%) [Dose (mg/kg)] five consec. admin. ([2]; dose 6.3 mg/kg): 50 ( 6.3) %
3 | COc1cc(C(=O)C(C)=Cc2c[nH]c3cc(C)ccc23)cc2c1OCO2 [Compound 12, 1-(3-Methoxy-4,5-methylenedioxyphenyl)-2-methyl-3-(6-methylindol-3-yl)-2-propen-1-one] | 2.3 | –
4 | CCOc1c(OC)cc(C(=O)C(C)=Cc2c[nH]c3cc(CC)ccc23)cc1OC [Compound 16, 1-(4-Ethoxy-3,5-dimethoxyphenyl)-3-(6-ethylindol-3-yl)-2-methyl-2-propen-1-one] | 6.2 | –
5 | CCOc1c(OC)cc(C(=O)C(C)=Cc2c[nH]c3cc(Cl)ccc23)cc1OC [Compound 18, 3-(6-Chloroindol-3-yl)-1-(4-ethoxy-3,5-dimethoxyphenyl)-2-methyl-2-propen-1-one] | 6.3 | –
6 | CCCCOc1c(OC)cc(C(=O)C(C)=Cc2c[nH]c3cc(C)ccc23)cc1OC [Compound 20, 1-(4-Buthoxy-3,5-dimethoxyphenyl)-2-methyl-3-(6-methylindol-3-yl)-2-propen-1-one] | 6.1 | –
7 | COc1ccc(C(=O)C(C)=Cc2c[nH]c3ccccc23)c(OC)c1OC [Compound 24, 3-(Indol-3-yl)-2-methyl-1-(2,3,4-trimethoxyphenyl)-2-propen-1-one] | 22 | –

Further lines, with some results ahead:

Row | IC50 [1] [nM] | Compound | also measured
8 | 2.5 | CCOc1c(OC)cc(C(=O)C(C)=Cc2c[nH]c3ccccc23)cc1OC [Compound 5, 1-(4-Ethoxy-3,5-dimethoxyphenyl)-3-(indol-3-yl)-2-methyl-2-propen-1-one] | ILS (%) [Dose (mg/kg)] five consec. admin. ([2]; dose 3.1 mg/kg): 41 ( 3.1) %
9 | 9.4 | COc1cc(C(=O)C(C)=Cc2c[nH]c3ccccc23)cc(OC)c1OCC(C)C [Compound 6, 3-(Indol-3-yl)-1-(4-isobutyloxy-3,5-dimethoxyphenyl)-2-methyl-2-propen-1-one] | ILS (%) [Dose (mg/kg)] five consec. admin. ([2]; dose 3.1 mg/kg): 43 ( 3.1) %
10 | 64 | CCc1c(OC)cc(C(=O)C(C)=Cc2c[nH]c3ccccc23)cc1OC [Compound 7, 1-(4-Ethyl-3-dimethoxyphenyl)-3-(indol-3-yl)-2-methyl-2-propen-1-one] | ILS (%) [Dose (mg/kg)] five consec. admin. ([2]; dose 25 mg/kg): 40 ( 25) %
11 | 3.2 | CCOc1cc(C(=O)C(C)=Cc2c[nH]c3ccccc23)cc(OC)c1OC [Compound 9, 1-(5-Ethoxy-3,4-dimethoxyphenyl)-3-(indol-3-yl)-2-methyl-2-propen-1-one] | –
12 | 6.6 | COc1cc(C(=O)C(C)=Cc2c[nH]c3ccccc23)cc(Br)c1OC [Compound 10, 1-(3-Bromo-4-dimethoxyphenyl)-3-(indol-3-yl)-2-methyl-2-propen-1-one] | –
13 | 6.7 | CCOc1c(OC)cc(C(=O)C(C)=Cc2c[nH]c3cc(C)ccc23)cc1OC [Compound 11, 1-(4-Ethoxy-3,5-dimethoxyphenyl)-2-methyl-3-(6-methylindol-3-yl)-2-propen-1-one] | –
14 | 18 | COc1cc(C(=O)C(C)=Cc2c[nH]c3cc(C)ccc23)cc(OC)c1OCC(C)C [Compound 15, 1-(4-Isobutyloxy-3,5-dimethoxyphenyl)-2-methyl-3-(6-methylindol-3-yl)-2-methyl-2-propen-1-one] | –
15 | 5.2 | CCCOc1c(OC)cc(C(=O)C(C)=Cc2c[nH]c3cc(C)ccc23)cc1OC [Compound 19, 1-(3,5-Dimethoxy-4-propoxyphenyl)-2-methyl-3-(6-methylindol-3-yl)-2-propen-1-one] | –
